Measurements: US20050272726A1, “Novel medicaments for the treatment of respiratory diseases” (Boehringer Ingelheim International GmbH, priority 2004, published 2005)
Counter-ions that a name gives are not always drawn.

melting point [°C]	SMILES
279 to 280	CC(C)(Cc1ccc(F)cc1F)NCC(O)c1cc(O)cc2c1OCC(=O)N2 (centres unmarked) (as salt: hydrochloride)
278 to 280	Cc1cc(CC(C)(C)NCC(O)c2cc(O)cc3c2OCC(=O)N3)ccc1F (centres unmarked) (as salt: hydrochloride) [Example 8, 8-{2-[2-(4-Fluoro-3-methyl-phenyl)-1,1-dimethyl-ethylamino]-1-hydroxy-ethyl}-6-hydroxy-4H-benzo[1,4]oxazin-3-one]
235 to 238	Cc1cc(C)cc(CC(C)(C)NCC(O)c2cc(O)cc3c2OCC(=O)N3)c1 (centres unmarked) (as salt: hydrochloride) [Example 13, 8-{2-[2-(3,5-dimethyl-phenyl)-1,1-dimethyl-ethylamino]-1-hydroxy-ethyl}-6-hydroxy-4H-benzo[1,4]oxazin-3-one]
278 to 280	Cc1cc(F)ccc1CC(C)(C)NCC(O)c1cc(O)cc2c1OCC(=O)N2 (centres unmarked) (as salt: hydrochloride) [Example 9, 8-{2-[2-(4-fluoro-2-methyl-phenyl)-1,1-dimethyl-ethylamino]-1-hydroxy-ethyl}-6-hydroxy-4H-benzo[1,4]oxazin-3-one]
201 to 204	CC(C)(Cc1ccc(OCCCC(=O)O)cc1)NCC(O)c1cc(O)cc2c1OCC(=O)N2 (centres unmarked) [Example 14, 4-(4-{2-[2-hydroxy-2-(6-hydroxy-3-oxo-3,4-dihydro-2H-benzo[1,4]oxazin-8-yl)-ethylamino]-2-methyl-propyl}-phenoxy)-butyric acid]
